In publication PMC2825141 (Journal of medicinal chemistry, 2009):

Legend:
[1] = target: T1, G9a (Homo sapiens, UniProt Q96KQ7); assay: G9a FP assay; assay type: binding; settings: compared to 2a
T1 sequence (Q96KQ7 1-1210): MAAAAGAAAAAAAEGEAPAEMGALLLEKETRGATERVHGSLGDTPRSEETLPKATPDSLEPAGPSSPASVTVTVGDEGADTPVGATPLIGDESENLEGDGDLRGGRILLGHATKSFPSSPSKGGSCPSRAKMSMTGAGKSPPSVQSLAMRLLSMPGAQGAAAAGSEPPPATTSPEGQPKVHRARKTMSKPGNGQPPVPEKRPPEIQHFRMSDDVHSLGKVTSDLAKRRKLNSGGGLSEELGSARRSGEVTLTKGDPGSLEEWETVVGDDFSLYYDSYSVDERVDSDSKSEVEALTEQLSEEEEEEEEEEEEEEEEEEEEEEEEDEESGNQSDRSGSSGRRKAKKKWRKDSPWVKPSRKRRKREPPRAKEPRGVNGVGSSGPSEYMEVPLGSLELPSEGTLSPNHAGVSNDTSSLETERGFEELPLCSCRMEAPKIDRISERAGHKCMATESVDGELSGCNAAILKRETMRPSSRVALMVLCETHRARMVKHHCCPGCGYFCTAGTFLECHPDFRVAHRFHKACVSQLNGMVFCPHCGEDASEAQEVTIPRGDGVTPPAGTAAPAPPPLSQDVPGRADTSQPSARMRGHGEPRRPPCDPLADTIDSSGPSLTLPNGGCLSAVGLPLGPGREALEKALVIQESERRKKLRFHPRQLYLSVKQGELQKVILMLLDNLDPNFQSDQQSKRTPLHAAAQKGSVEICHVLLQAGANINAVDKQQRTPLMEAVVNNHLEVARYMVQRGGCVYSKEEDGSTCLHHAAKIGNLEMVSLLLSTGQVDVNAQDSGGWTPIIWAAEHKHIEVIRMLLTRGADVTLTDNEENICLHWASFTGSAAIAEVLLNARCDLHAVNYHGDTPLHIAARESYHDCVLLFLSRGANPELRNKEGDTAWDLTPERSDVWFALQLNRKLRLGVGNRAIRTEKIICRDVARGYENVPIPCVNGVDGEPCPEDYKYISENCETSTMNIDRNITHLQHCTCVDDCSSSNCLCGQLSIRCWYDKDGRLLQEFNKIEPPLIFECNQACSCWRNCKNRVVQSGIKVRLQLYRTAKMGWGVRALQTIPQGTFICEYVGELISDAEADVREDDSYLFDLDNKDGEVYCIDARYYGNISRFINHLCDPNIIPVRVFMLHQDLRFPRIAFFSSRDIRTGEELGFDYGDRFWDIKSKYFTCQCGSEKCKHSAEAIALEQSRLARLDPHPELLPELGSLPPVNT

[2] = target: T1, G9a; assay: DSF stabilization of G9a; assay type: binding; settings: compared to 2a

Stabilization of G9a in DSF [2]: stabilized G9a better compared to 2a
Structure (SMILES): COc1cc2c(NC3CCN(C)CC3)nc(N3CCCN(C)CC3)nc2cc1OCCCN(C)C [Compound 8]
Displacement of fluorescein labeled 15-mer H3 peptide (1–15) [1]: displaced fluorescein labeled 15-mer H3 peptide (1–15) better than 2a
